Where two headings read alike, the source gives them in different places.
What was measured:
GPR26 [1] = molecular target: T1, GPR26 (Homo sapiens, UniProt Q8NDV2); test: antagonist cre-luc reporter assay, inhibition of GPR26 activation; type: cell-based
T1 construct: Full length open reading frames (ORFS) of GPR78 and GPR26 were obtained with PCR; expressed in transfected cells; host or cells: HEK293/cre-luc
Experimental: (§1) Screening was performed by using cells transiently expressing GPR26 or GPR78. HEK293/cre-luc cells were harvested by using 0.05% trypsin EDTA solution, and were suspended in complete culture medium at a density of 20 million in 0.4 ml transfection cuvettes. One 1 microgram plasmid construct containing GPR78 or GPR26 cDNA was transfected into reporter cells by electroporation using the GenePulser (Bio-Red Laboratories, Hercules, Calif.). The transfection conditions were: voltage at 200 volts and capacity at 500 microfarads. After electroporation, cells were suspended at a density of 25,000 cells in 25 μl complete medium and placed in a 384-well plate. After 24 hours of transfection, the transfection medium was replaced with fresh complete medium. Empty plasmid vector was transfected as a negative control (mock transfection). The compounds were arranged in 96-well format in eight racks of 80, with one compound per well (250 μl at 10 mM in DMSO). […] By the end of incubation, 25 ul of Bright-Glo™ (Promega, Madison, Wis.) was added into each well. Luciferase activity was determined with a Luminometer (Luminoskan Ascent, Thermo Labsystems), at a speed of 100 milliseconds per well.
(§2) To determine the inhibitory potency of the two molecules, dose-response curves were generated with the same assay method and IC50 values calculated from the curves.

GPR78 [2] = molecular target: T2, GPR78 (Homo sapiens, UniProt Q96P69); test: antagonist cre-luc reporter assay, inhibition of GPR78 activation; type: cell-based
T2 construct: Full length open reading frames (ORFS) of GPR78 and GPR26 were obtained with PCR; expressed in transfected cells; host or cells: HEK293/cre-luc
T2 sequence (Q96P69 whole entry): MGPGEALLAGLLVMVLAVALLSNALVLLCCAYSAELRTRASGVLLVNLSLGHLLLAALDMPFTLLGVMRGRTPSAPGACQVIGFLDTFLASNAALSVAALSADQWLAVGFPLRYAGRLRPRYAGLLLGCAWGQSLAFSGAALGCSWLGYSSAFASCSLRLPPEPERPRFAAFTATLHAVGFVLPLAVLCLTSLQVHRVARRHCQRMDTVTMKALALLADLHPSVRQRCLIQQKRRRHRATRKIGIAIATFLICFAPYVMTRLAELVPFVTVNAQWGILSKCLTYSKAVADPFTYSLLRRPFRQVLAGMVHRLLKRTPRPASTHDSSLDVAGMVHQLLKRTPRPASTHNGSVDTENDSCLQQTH
Experimental: as §1, §2

GPR78 [3] = molecular target: T2, GPR78; test: cre-luciferase cAMP reporter assay in GPR78-transfected HEK293/cre-luc cells; type: cell-based; details: for cAMP stimulation: final concentration 300 μM in 1.5% DMSO, luciferase reporter assay and direct cAMP measurement (Perkin-Elmer kit); for cAMP level compared with GPR78-expressing cells stimulated with buffer (Basal): Tyrphostin B42 at 23 μM, Tyrphostin A9 at 24 μM; for effect on genistein-induced cAMP: FIG. 6A; for cAMP level compared to buffer control / genistein: isoflavones, FIG. 3
Experimental: (§3) HEK293/cre-luc cells were harvested by 0.05% trypsin EDTA buffer, cells re-suspended in complete culture medium 20 million in […] transfection cuvette, 1 microgram receptor plasmid was transfected into reporter cells by electroporation method. The parameter of the GenePulser (Bio-Rad Laboratories, Hercules, Calif.) was set at: voltage 200 volts and capacity 500 microfarads. After electroporation, cells were re-suspended at a density of 25,000 cells in 25 μl complete medium, placed in 384-well plate. After 24 hours of transfection, the transfection medium was replaced with fresh complete medium. Empty plasmid vector was transfected as a negative control (mock transfection).
When inhibitors were used in the assay, they were added 30 minutes before cell stimulation. At the end of incubation, 25 μl of Bright-Glo™ obtained from Promega (Madison, Wis.) was added into each well. Luciferase activity was determined with a luminometer (Luminoskan Ascent®, Thermo-Electron Corp.), at a speed of 100 milliseconds per well.
Response of cells with the expressed receptor to test ligand stimulation was subject to two types of detection: intracellular cAMP accumulation and intracellular Ca2+ flux monitored with fluorescent intensity using a Fluorimetric Image Plate Reader (FLIPR).

GPR154 = molecular target: T3, GPR154 (Homo sapiens, UniProt Q6W5P4); test: Ca2+ flux assay (FLIPR), positive control receptor; type: cell-based; details: FIG. 5
T3 construct: expressed in transfected cells; host or cells: HEK293/cre-luc
T3 sequence (Q6W5P4 1-371): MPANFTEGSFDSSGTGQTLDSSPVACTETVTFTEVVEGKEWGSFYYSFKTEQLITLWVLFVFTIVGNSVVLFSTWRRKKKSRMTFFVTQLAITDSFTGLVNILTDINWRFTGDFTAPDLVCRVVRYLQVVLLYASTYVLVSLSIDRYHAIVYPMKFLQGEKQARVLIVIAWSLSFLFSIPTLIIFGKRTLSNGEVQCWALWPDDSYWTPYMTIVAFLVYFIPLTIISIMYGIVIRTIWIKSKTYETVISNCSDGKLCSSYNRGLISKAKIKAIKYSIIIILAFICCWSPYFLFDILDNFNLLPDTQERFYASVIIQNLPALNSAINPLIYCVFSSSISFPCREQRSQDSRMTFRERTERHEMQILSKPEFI
Description: (§4) Ca2+ flux measurements were taken to test if GPR78, when activated with genistein, is coupled to the Gq-mediated pathway.

protein tyrosine kinase = details: literature values; for genistein depending on the substrates used; read-out: IC50, inhibition of protein tyrosine kinase; cited from earlier work
NO synthase (NOS) = NO synthase (NOS) (Mus musculus, UniProt P29477); details: read-out: IC50, inhibition of NOS; cultured peritoneal macrophages, ref [40]; cited from earlier work
Chain of NO synthase (NOS) (P29477 whole entry): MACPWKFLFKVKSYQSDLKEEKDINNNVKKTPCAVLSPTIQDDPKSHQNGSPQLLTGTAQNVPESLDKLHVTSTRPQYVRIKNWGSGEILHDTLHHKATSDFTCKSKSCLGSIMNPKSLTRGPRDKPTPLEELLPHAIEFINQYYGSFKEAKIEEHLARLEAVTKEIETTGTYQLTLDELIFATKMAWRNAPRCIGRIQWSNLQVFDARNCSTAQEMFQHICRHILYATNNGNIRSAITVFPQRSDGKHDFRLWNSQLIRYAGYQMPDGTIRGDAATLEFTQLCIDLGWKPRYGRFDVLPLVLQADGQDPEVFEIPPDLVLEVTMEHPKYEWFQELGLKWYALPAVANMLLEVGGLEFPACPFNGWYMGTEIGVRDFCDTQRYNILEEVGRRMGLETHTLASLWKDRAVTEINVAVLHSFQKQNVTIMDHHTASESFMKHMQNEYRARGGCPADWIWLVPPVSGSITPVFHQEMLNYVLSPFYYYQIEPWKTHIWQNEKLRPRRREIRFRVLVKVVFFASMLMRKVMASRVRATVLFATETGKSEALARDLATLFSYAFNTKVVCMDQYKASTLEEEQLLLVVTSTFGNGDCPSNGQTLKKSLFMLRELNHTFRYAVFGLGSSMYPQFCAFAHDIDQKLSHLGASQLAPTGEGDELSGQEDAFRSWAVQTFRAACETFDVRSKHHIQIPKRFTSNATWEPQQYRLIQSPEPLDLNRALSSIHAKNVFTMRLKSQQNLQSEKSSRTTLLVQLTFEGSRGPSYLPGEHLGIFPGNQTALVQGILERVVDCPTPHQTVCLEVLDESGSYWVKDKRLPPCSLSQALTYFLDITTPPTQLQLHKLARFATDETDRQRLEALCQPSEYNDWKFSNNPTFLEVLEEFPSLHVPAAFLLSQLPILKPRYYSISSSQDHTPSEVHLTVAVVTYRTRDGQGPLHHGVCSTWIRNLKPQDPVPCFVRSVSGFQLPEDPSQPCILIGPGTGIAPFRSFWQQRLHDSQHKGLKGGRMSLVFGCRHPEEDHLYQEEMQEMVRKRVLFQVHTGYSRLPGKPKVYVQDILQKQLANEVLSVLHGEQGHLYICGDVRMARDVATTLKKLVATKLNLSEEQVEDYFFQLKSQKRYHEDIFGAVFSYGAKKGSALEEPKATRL

rabbit aortic rings = details: read-out: IC50, block of acetylcholine-induced relaxation, ref [40]; cited from earlier work
protein kinase A = details: ref [27]; read-out: reported IC50 of H89; cited from earlier work
adenylyl cyclase = details: cell-free enzyme assays, ref [28]; read-out: published IC50; cited from earlier work
GPR26 [4] = molecular target: T1, GPR26; test: cre-luciferase cAMP reporter assay in GPR26-transfected HEK293/cre-luc cells; type: cell-based; details: cre-luc reporter assay, transient transfection, FIG. 8A; read-out: EC50, activation of GPR26
Experimental: as §3
Forty hours after transfection, cells were stimulated by adding 5 μl of ligand in 60 μM 4-(3-butoxy-4-methoxy-benzyl)-2-Imidazolidinone in 293 SFM II serum-free media obtained from Gibco (Gaithersburg, Md.), and incubated for 6 hours at 37° C. in a 5% CO2-95% air incubator. […] Luciferase activity was determined with a luminometer (Luminoskan Ascent®, Thermo-Electron Corp.), at a speed of 100 milliseconds per well.
(§5) GPR26, another orphan GPCR, shares 51% identity in the seven transmembrane regions with GPR78 ([19]). […] HEK293/cre-luc cells were transiently transfected with pCR3.1-GPR26 and monitored cAMP levels upon stimulation with genistein. […]

GPR30 = molecular target: T4, GPR30 (Homo sapiens, UniProt Q99527); details: Gβγ-mediated pathway, ref [25]; cited from earlier work
T4 construct: host or cells: MCF-7, MDA-MB-231, SKBR3 (as cited)
T4 sequence (Q99527 whole entry): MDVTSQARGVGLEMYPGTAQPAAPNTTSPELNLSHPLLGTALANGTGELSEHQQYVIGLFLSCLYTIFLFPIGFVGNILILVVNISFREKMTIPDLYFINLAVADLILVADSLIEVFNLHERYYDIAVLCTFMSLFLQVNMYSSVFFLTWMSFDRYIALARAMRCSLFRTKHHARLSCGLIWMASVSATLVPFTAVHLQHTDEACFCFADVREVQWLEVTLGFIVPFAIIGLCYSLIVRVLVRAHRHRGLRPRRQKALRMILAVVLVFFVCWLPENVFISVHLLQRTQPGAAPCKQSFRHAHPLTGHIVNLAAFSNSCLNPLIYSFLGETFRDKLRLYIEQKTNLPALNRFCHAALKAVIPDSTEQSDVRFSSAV

GPR26 [5] = molecular target: T1, GPR26; test: direct intracellular cAMP measurement (Meso Scale Discovery kit) in HEK293/cre-luc cells stably transfected with GPR26; type: cell-based; details: cells stably expressing GPR26, FIG. 8B
Experimental: (§6) Constructs PCR3.1-GPR78 and PCR3.1-GPR26 were transfected into HEK293/cre-luc cells with use of Lipofectamine™ 2000 and cells were selected for G418 resistance. Cells resistant to G418 were further diluted and selected for individual colonies. Cell lines grown from the G418-resistant colonies were screened for positive response with genistein in the Cre-Luciferase cAMP assay.
(§7) Intracellular cAMP was measured directly with a cAMP kit purchased from Meso Scale Discovery (Gaithersburg, Md., Ma6000 cAMP 384-well Kit, Catalog number K210FDD-2). The assay was preformed by following the manufacturer's protocol. Briefly, stable HEK293/cre-luc cells expressing GPR78 or GPR26 were harvested, washed with PBS and resuspended at 300,000/10 μl of assay buffer (from the kit) containing 0.5 mM IBMX. Genistein at appropriate concentrations was diluted in the cAMP assay buffer and 5 μl was added into wells of the assay plate. The mixture was then incubated at room temperature for 30 minutes. Light intensity in assay wells was measured using a MSD SI6000 instrument obtained from Meso Scale Discovery.
as §5

GPR78 [6] = molecular target: T2, GPR78; test: Ca2+ flux assay (FLIPR) in GPR78-expressing HEK/cre-luc cells; type: cell-based; details: genistein at concentrations near 100 μM, FIG. 5
Description: Response of cells with the expressed receptor to test ligand stimulation was subject to two types of detection: intracellular cAMP accumulation and intracellular Ca2+ flux monitored with fluorescent intensity using a Fluorimetric Image Plate Reader (FLIPR). For cAMP measurement, a HEK293 cell line that had been stably transfected with luciferase reporter gene, was used as a host cell transiently transfected with the pCR3.1-GPR78 construct described in Example 1.
as §4

GPR78 [7] = molecular target: T2, GPR78; test: direct intracellular cAMP measurement (Meso Scale Discovery kit) in HEK293/cre-luc cells stably transfected with GPR78; type: cell-based; details: FIG. 2C, read-out: EC50, increase of cAMP level
Experimental: as §6, §7

T1 sequence (Q8NDV2 whole entry): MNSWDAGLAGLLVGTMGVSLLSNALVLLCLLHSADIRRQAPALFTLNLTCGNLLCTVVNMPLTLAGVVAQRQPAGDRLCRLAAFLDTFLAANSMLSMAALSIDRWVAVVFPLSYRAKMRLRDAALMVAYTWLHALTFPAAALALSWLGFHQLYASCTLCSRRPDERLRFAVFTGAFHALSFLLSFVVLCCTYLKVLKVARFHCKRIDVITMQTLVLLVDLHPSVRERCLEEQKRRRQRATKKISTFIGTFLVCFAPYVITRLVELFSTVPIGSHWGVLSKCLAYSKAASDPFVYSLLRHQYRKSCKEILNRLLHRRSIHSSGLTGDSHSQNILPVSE

## C[n+]1cc2c3c(ccc2c2ccc4cc5c(cc4c21)OCO5)OCO3 [sanguinarine Cl hydrate]
GPR26 [1]; cre-luc reporter assay, dose-response curves, read-out: IC50, inhibition of GPR26 activation
  IC50: 0.26 µM
GPR78 [2]; cre-luc reporter assay, dose-response curves, read-out: IC50, inhibition of GPR78 activation
  IC50: 0.65 µM

## C[C@]12CC[C@H]3[C@@H](CCC4=CC(=O)CC[C@@]43C)[C@@H]1CC[C@@H]2O [testosterone]
GPR78 [3]
  cAMP stimulation: No cAMP stimulation was observed

## neuropeptide S (SFRNGVGTGMKKTSFQRAKS) [ligand of GPR154, positive control in Ca2+ flux assay]
GPR154
  response in Ca2+ flux assay: responded to neuropeptide S acutely

## N#C/C(=C\c1ccc(O)c(O)c1)C(=O)NCc1ccccc1 [Tyrphostin B42]
Protein tyrosine kinase
  IC50: 20 µM
GPR78 [3]; FIG. 1
  cAMP level compared with GPR78-expressing cells stimulated with buffer (Basal): not higher than the level in GPR78-expressing cells stimulated with buffer

## c1ccc2c(c1)[I+]c1ccccc1-2 [diphenyleneiodonium Cl, Diphenyleneiodonium Cl]
GPR26 [1]
  IC50: 39 µM
GPR78 [2]
  IC50: 65 µM
NO synthase (NOS)
  IC50: 0.03 µM
Rabbit aortic rings
  IC50: 0.3 µM

## CC(=O)[C@H]1CC[C@H]2[C@@H]3CCC4=CC(=O)CC[C@]4(C)[C@H]3CC[C@]12C [progesterone]
GPR78 [3]
  cAMP stimulation: No cAMP stimulation was observed

## Cl.Cl.O=S(=O)(NCCNCC=Cc1ccc(Br)cc1)c1cccc2cnccc12 [H89, N-[2-(p-bromocinnamylamino)ethyl]-5-isoquinolinesulfonamide dihydrochloride]
GPR78 [3]; 10 μM H89, 30 min pre-incubation
  effect on genistein-induced cAMP: Most of genistein-induced cAMP was reduced
GPR78 [3]; 10 μM H89, compared to cells with no H89, FIG. 6A
  effect on basal (constitutive) cAMP level: decrease of the basal cAMP level by approximately half
GPR78 [3]; 100 μM H89, 30 min pre-incubation
  effect on genistein-induced cAMP: all cAMP accumulation was abolished
GPR78 [3]; 100 μM H89, FIG. 6A
  effect on basal (constitutive) cAMP level: completely inhibited cAMP accumulation
Protein kinase A
  IC50: 0.05 µM

## COc1ccc(-c2coc3cc(O)cc(O)c3c2=O)cc1 [biochanin A]
GPR78 [3]
  cAMP level compared to buffer control / genistein: only slightly induced cAMP levels

## O=c1c(-c2ccc(O)cc2)coc2cc(O)ccc12 [daidzein]
GPR78 [3]
  cAMP level compared to buffer control / genistein: significantly increased cAMP level comparable to that by genistein

## Nc1ncnc2c1ncn2C1CCCO1 (centres unmarked) [SQ22536, 9-(Tetrahydro-2-furanyl)-9H-purin-6-amine]
GPR78 [3]; SQ22536 at 20 μM pre-incubated, FIG. 7
  reduction of genistein-stimulated cAMP: 25%
GPR78 [3]; SQ22536 at 20 μM pre-incubated, absence of genistein, FIG. 7
  reduction of cAMP level resulting from constitutive activity of GPR78: 34%
Adenylyl cyclase
  IC50: 20 µM

## CC(C)(C)c1cc(C=C(C#N)C#N)cc(C(C)(C)C)c1O [Tyrphostin A9]
Protein tyrosine kinase
  IC50: 0.04 to 9 µM
GPR78 [3]; FIG. 1
  cAMP level compared with GPR78-expressing cells stimulated with buffer (Basal): not higher than the level in GPR78-expressing cells stimulated with buffer

## O=c1c(-c2ccc(O)cc2)coc2cc(O)cc(O)c12 [genistein]
GPR26 [4]
  EC50: ~10 µM
Protein tyrosine kinase
  IC50: 1 to 22 µM
GPR30
  potency of GPR30 activation: low μM range
GPR78 [3]
  EC50: 6 to 10 µM
GPR78 [3]; 25 μM genistein, transiently transfected cells, FIG. 1
  increase of luciferase activity (cAMP production) compared to the mock transfection control: more than 8 fold
GPR78 [3]; FIG. 2A, read-out: EC50, induction of cAMP
  EC50: 7 µM
GPR26 [5]
  cAMP production: stimulated cAMP production
GPR78 [6]
  activation in Ca++ flux assay: not activated
GPR78 [7]
  EC50: ~6 µM

— US7872101B1, “Modulators of the orphan G protein-coupled receptors GPR78 and GPR26” (Schering Corporation, priority 2006, dated 2011)
